Reference: ChEMBL document CHEMBL1201862, “PubChem BioAssay data set” (2004)
Calls of active or inactive are those of the source.

Legend:
[1] = NIH-3T3 fibroblast cytotoxicity, dose response, cytotoxicity control, cell-based, fluorescence, Alamar Blue, secondary assay (AID 2327); type: functional;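 further: NIH-3T3 mouse fibroblasts cultured with fluconazole at 8 µg/mL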
[2] = Luminescence Cell-Based Dose Response HTS to Identify Inhibitors of Luciferase Translation or Activity in H4-C Neuroglioblastoma Cells. [Related pubchem assays: 1813 (Primary HTS), 1827 (Project Summary)]; type: functional
[3] = Luminescence Cell-Based Dose Response HTS to Identify Activators of Luciferase Translation or Activity in H4-C Neuroglioblastoma Cells. [Related pubchem assays: 1829 (Project Summary), 1814 (Primary HTS)]; type: functional
[4] = inhibitors of firefly luciferase expression or activity, dose response, H4 neuroglioma cells, luminescence (AID 1990); type: functional, cell-based
[5] = luciferase reporter signal reduction – luminescence, H4-C neuroglioblastoma cells, dose response (AID 2458); type: functional, cell-based;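 further: H4 neuroglioblastoma cells stably carrying a luciferase reporter gene fusion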
[6] = Luminescence Cell-Based Dose Retest to Confirm Activators of 5'UTR Stem-Loop Driven Alpha-Synuclein mRNA Translation in H4 Neuroglioblastoma Cells. [Related pubchem assays (depositor defined):AID1813, AID1829]; type: functional
[7] = Luminescence Cell-Based Dose Response HTS to Identify Activators of 5'UTR Stem-Loop Driven Prion Protein mRNA Translation in H4-C Neuroglioblastoma Cells. [Related pubchem assays: 1829 (Project Summary), 1814 (Primary HTS)]; type: functional
[8] = tested on: Streptococcus sp. 'group A'; experiment: growth inhibition of control SK(-) GAS strain, dose response, counter-screen for streptokinase expression inhibitor project, luminescence, kanamycin, BacTiterGlo, confirmation (AID 1900); type: functional, organism-based
[9] = Luminescence Cell-Based Dose HTS Response to Identify Inhibitors of 5'UTR Stem-Loop Driven Prion Protein mRNA Translation in H4-C Neuroglioblastoma Cells. [Related pubchem assays (depositor defined):AID1814, AID1827]; type: functional
[10] = cells; type: functional, cell-based
[11] = Luminescence Cell-Based Dose Response HTS to Identify Inhibitors of 5'UTR Stem-Loop Driven Prion Protein mRNA Translation in H4 Neuroglioblastoma Cells. [Related pubchem assays: 1827 (Project Summary), 1813 (Primary HTS)]; type: functional
[12] = biological target: Beta-galactosidase (Escherichia coli, UniProt Q8VNN2); experiment: PubChem AID 485352; type: functional
Sequence of Beta-galactosidase (Q8VNN2 whole entry): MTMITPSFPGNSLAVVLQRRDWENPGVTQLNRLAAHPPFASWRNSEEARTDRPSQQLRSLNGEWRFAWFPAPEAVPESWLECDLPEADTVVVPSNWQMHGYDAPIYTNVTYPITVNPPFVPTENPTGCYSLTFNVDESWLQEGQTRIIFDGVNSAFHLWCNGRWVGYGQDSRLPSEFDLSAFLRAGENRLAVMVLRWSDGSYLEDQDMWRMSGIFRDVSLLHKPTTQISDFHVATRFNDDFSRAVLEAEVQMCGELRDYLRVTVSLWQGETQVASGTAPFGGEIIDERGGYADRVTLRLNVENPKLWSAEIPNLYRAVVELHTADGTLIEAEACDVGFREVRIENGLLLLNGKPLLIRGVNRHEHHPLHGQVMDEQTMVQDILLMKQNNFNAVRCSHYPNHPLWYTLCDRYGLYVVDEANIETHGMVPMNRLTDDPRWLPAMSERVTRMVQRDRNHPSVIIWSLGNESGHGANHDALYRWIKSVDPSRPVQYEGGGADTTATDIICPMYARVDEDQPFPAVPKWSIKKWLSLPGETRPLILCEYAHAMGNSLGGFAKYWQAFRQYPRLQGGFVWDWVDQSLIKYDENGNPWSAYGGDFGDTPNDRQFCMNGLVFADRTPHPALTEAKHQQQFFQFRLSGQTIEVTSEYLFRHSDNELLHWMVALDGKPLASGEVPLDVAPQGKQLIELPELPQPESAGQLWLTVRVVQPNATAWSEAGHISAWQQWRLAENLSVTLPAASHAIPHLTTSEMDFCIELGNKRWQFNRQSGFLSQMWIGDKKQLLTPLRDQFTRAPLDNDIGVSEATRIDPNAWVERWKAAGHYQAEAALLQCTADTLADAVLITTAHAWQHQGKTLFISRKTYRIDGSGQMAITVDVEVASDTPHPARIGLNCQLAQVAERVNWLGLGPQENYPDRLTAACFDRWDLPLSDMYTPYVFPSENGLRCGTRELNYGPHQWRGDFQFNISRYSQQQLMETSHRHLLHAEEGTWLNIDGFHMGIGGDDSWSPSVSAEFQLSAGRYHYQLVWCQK

[13] = inhibitors of SNCA 5'UTR-driven reporter translation, confirmation, H4 neuroglioma cells, luminescence (AID 1988); type: functional, cell-based
[14] = C. albicans growth with fluconazole, confirmation, fluorescence, retest (AID 2467); type: functional, cell-based
[15] = Luminescence Cell-Based Dose Confirmation HTS to Identify Inhibitors of 5'UTR Stem-Loop Driven Alpha-Synuclein mRNA Translation in H4 Neuroglioblastoma Cells. [Related pubchem assays: 1827 (Project Summary), 1813 (Primary HTS)]; type: functional
[16] = inhibitors of intracellular T. cruzi replication, confirmation, NIH3T3 host cells, beta-gal luminescence (AID 2044); type: functional, cell-based;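 further: intracellular parasites grown in NIH/3T3 mouse fibroblasts as host cells; luminescent beta-galactosidase reporter signal from transgenic T. cruzi replicating inside host cells; inhibitors lower the luminescence signal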
[17] = biological target: T1, Type-1 angiotensin II receptor (Homo sapiens, UniProt P30556); experiment: AT1 receptor antagonists, dose response, selectivity assay for APJ receptor antagonist project, cell-based, uHTS hits (AID 463214); type: functional;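 further: antagonist potency against angiotensin II stimulated AT1 response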
T1 sequence (P30556 whole entry): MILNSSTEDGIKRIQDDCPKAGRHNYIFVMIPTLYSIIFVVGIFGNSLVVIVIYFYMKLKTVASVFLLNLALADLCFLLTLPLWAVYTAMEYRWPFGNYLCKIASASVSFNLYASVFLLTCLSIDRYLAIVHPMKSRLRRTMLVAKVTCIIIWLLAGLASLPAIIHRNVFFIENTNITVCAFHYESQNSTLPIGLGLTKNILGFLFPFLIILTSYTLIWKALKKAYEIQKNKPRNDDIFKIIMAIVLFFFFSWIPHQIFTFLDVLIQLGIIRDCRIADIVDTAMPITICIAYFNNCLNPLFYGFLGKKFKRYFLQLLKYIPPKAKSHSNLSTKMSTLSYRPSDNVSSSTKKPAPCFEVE

[18] = biological target: T2, Serine/threonine-protein phosphatase (Candida dubliniensis (strain CD36 / CBS 7987 / NCPF 3949 / NRRLY-17841) (Yeast), UniProt B9W6M3); experiment: calcineurin pathway inhibitors in yeast reporter, dose response, S. cerevisiae, CDRE-lacZ, luminescence, secondary (AID 2388); type: functional, cell-based;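 further: yeast reporter cells carrying a calcineurin-responsive lacZ construct stimulated with calcium chloride; luminescent beta-galactosidase reporter signal in whole cells rather than isolated phosphatase activity; potency for inhibition where a drop in reporter signal means calcineurin blockade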
T2 sequence (B9W6M3 whole entry): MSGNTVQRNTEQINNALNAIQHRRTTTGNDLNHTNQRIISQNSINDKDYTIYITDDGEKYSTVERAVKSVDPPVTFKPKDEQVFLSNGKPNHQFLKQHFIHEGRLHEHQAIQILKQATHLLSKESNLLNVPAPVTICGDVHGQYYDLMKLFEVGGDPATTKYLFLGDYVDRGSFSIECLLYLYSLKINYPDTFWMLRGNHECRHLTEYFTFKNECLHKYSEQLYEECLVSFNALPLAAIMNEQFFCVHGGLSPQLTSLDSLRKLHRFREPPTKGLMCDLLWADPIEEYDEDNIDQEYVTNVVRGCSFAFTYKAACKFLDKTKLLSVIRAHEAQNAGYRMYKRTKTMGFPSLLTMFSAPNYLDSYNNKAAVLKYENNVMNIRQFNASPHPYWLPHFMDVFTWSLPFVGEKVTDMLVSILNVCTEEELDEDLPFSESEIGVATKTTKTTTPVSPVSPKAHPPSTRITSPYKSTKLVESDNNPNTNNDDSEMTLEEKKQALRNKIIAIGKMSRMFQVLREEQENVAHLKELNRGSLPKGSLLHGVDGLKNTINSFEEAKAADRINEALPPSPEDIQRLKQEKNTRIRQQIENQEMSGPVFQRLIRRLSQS

[19] = cytotoxicity toward NIH3T3 fibroblasts, dose response, counter-screen, cell-based, ATP luminescence, mouse fibroblasts (AID 2010); type: functional;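 further: cells exposed to compound for about 90 hours before reading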
[20] = biological target: Induced myeloid leukemia cell differentiation protein Mcl-1 (Homo sapiens, UniProt Q07820); type: functional
[21] = tested on: Streptococcus; experiment: Group A Streptococcus viability loss, dose response, counter-screen for streptokinase expression inhibitor project, luminescence, BacTiterGlo (AID 1915); type: functional, organism-based;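 further: potency for reduction of bacterial viability or growth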
[22] = inhibitors of SNCA 5'UTR-driven translation, confirmation, luminescence, H4 neuroglioblastoma cells, dose confirmation (AID 2454); type: functional, cell-based;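 further: H4 neuroglioblastoma cells carrying an alpha-synuclein 5'UTR luciferase reporter; potency for inhibition of the luciferase signal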
[23] = cytotoxicity in HEK-293T cells, dose response, cytotoxicity control for TCR NF-kB inhibitor project, luminescence, T-cell screen hits (AID 489026); type: functional, cell-based;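 further: cells exposed to compound about 14 hours before the viability readout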
[24] = biological target: Nonstructural protein 1 (Influenza A virus, UniProt Q194T2); type: functional, Influenza A virus (A/California/07/2009(H1N1))
Sequence of Nonstructural protein 1 (Q194T2 whole entry): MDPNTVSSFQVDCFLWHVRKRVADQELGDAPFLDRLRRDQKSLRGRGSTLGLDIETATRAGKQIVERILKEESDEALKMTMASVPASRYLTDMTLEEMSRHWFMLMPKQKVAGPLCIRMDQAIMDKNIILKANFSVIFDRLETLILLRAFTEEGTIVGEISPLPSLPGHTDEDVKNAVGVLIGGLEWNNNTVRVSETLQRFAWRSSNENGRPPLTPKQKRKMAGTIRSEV

[25] = biological target: ATP-dependent molecular chaperone HSP82 (Candida albicans (strain WO-1) (Yeast), UniProt C4YTQ8); experiment: loss of DOC-induced GRE-beta-galactosidase reporter signal, dose response, Hsp90 inhibitor project, S. cerevisiae, luminescence (AID 2400); type: functional, cell-based;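 further: beta-galactosidase luminescence from glucocorticoid response element reporter as proxy for Hsp90 function; inhibitor potency where signal loss means Hsp90 inhibition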
Sequence of ATP-dependent molecular chaperone HSP82 (C4YTQ8 whole entry, the tested form may be a part): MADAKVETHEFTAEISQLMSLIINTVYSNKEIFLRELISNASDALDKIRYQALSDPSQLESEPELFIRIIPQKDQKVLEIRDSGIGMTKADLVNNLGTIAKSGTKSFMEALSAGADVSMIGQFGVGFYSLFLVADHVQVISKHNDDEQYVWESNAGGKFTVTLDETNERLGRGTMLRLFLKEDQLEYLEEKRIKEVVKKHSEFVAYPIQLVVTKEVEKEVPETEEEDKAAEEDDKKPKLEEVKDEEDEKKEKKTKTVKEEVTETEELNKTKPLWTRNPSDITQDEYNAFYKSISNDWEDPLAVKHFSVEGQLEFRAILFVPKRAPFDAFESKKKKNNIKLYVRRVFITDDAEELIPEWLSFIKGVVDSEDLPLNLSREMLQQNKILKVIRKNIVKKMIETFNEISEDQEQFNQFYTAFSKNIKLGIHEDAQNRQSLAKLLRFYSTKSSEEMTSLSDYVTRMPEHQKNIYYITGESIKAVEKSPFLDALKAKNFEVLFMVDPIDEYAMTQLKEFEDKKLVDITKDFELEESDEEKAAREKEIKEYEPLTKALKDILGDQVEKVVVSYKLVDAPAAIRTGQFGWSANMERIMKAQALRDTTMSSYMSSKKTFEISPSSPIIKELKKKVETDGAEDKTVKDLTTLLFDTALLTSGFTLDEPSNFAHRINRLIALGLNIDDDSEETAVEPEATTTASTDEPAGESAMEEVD

[26] = biological target: T3, E3 ubiquitin-protein ligase XIAP (Homo sapiens, UniProt P98170); experiment: SAR analysis of Antagonists of XIAP-Bir3 domain of IAP-family anti-apoptotic proteins. [Related pubchem assays (depositor defined):AID1018, AID1449, AID1513, AID1514, AID1638]
T3 sequence (P98170 whole entry, the tested form may be a part): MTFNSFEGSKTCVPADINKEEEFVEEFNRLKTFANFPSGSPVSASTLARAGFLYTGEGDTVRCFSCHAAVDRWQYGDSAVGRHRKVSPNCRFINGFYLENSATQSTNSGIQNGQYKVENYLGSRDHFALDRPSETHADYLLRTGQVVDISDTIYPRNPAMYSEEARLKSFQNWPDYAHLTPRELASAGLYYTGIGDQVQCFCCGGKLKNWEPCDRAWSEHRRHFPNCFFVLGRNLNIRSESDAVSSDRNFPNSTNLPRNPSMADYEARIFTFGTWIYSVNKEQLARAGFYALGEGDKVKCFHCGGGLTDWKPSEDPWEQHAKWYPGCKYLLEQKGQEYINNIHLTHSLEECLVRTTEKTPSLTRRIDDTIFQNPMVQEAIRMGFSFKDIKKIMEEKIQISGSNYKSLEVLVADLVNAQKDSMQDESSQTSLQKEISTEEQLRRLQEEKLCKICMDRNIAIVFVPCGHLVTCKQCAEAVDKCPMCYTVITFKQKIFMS

[27] = biological target: T3, E3 ubiquitin-protein ligase XIAP; experiment: SAR analysis of Antagonists of IAP-family anti-apoptotic proteins. [Related pubchem assays (depositor defined):AID1018, AID1449, AID1513, AID1514, AID1638]
[28] = biological target: T4, G-protein coupled receptor 35 (Homo sapiens, UniProt Q9HC97); experiment: SAR analysis of Agonists of the GPR35 Receptor using an Image-Based Assay - Set 4. [Related pubchem assays (depositor defined):AID2013, AID2026]; type: functional
T4 sequence (Q9HC97 whole entry): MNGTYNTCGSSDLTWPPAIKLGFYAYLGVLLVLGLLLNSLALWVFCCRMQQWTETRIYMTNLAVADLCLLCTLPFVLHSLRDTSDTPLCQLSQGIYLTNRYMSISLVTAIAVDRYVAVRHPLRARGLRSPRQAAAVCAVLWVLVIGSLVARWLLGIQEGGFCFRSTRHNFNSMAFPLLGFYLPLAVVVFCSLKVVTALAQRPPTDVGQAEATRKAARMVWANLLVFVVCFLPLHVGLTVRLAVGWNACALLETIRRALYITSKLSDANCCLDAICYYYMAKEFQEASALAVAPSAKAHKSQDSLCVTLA

[29] = biological target: T5, Cannabinoid receptor 1 (Homo sapiens, UniProt P21554); experiment: SAR analysis of agonists of the Cannabinoid Receptor 1 using an Image-Based Assay - Set 4. [Related pubchem assays (depositor defined):AID2013, AID2026]; type: functional
T5 sequence (P21554 whole entry): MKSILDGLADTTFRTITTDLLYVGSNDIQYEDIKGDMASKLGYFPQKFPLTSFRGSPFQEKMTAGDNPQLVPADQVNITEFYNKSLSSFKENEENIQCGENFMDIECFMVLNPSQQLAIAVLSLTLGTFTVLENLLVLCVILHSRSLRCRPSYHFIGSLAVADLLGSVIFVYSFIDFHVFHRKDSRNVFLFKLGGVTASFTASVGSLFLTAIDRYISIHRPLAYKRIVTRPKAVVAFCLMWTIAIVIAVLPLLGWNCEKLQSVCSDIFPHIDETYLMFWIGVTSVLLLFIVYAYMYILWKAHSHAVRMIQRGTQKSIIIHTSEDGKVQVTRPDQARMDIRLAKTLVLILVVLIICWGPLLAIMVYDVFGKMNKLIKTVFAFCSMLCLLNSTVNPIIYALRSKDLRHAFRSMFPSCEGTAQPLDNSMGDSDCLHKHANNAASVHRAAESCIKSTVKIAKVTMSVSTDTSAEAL

[30] = biological target: T4, G-protein coupled receptor 35; experiment: SAR analysis of Antagonists of the GPR35 Receptor using an Image-Based Assay - Set 6. [Related pubchem assays (depositor defined):AID2013, AID2026]; type: functional
[31] = biological target: T5, Cannabinoid receptor 1; experiment: SAR analysis of antagonists of the Cannabinoid Receptor 1 using an Image-Based Assay - Set 4. [Related pubchem assays (depositor defined):AID2013, AID2026]; type: functional
[32] = biological target: G-protein coupled receptor 55 (Homo sapiens, UniProt Q9Y2T6); experiment: SAR Analysis of Selective Antagonists of GPR55 using an Image-Based Assay - Set 4. [Related pubchem assays (depositor defined):AID2013, AID2026]; type: functional;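 further: antagonism of response to 5 µM lysophosphatidylinositol agonist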
Sequence of G-protein coupled receptor 55 (Q9Y2T6 whole entry): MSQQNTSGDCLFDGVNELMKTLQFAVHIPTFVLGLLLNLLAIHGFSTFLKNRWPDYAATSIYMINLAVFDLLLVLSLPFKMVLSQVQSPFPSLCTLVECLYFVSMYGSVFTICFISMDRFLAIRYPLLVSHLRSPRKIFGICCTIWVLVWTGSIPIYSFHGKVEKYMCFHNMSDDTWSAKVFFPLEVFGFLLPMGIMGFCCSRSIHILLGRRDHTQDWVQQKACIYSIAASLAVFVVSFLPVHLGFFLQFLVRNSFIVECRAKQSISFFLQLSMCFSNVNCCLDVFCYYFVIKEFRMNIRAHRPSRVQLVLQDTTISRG

[33] = biological target: T6, Cannabinoid receptor 2 (Homo sapiens, UniProt P34972); experiment: SAR analysis of antagonists of the Cannabinoid Receptor 2 using an Image-Based Assay - Set 3. [Related pubchem assays (depositor defined):AID2013, AID2026]; type: functional
T6 sequence (P34972 whole entry): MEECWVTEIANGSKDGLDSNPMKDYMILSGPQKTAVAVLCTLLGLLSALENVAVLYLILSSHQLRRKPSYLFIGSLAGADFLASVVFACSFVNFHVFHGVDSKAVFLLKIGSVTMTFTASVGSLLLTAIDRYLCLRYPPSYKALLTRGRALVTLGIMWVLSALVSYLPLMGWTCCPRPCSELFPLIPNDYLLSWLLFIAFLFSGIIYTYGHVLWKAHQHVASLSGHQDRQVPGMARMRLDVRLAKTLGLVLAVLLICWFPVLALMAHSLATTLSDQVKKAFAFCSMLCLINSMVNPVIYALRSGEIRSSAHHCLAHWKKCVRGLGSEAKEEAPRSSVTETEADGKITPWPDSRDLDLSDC

[34] = biological target: T6, Cannabinoid receptor 2; experiment: SAR analysis of agonists of the Cannabinoid Receptor 2 using an Image-Based Assay - Set 3. [Related pubchem assays (depositor defined):AID2013, AID2026]; type: functional
[35] = biological target: Kappa-type opioid receptor (Homo sapiens, UniProt P41145); experiment: SAR analysis of small molecule agonists of the kappa opioid receptor via a luminescent beta-arrestin assay - Set 3. [Related pubchem assays (depositor defined):AID1777, AID1785, AID1786, AID1966, AID2133, AID2136, AID2284, AID2500]; type: functional
Sequence of Kappa-type opioid receptor (P41145 whole entry): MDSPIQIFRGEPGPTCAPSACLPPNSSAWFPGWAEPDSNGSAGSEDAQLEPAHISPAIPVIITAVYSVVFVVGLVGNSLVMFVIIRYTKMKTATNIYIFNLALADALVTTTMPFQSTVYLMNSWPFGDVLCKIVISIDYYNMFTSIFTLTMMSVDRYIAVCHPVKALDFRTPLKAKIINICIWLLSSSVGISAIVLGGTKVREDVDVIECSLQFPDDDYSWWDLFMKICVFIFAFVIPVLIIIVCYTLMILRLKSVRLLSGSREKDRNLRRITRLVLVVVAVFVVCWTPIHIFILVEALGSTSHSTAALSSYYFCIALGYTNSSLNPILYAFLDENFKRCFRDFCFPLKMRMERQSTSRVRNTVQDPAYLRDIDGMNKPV

[36] = biological target: Sphingosine 1-phosphate receptor 1 (Homo sapiens, UniProt P21453); experiment: Fluorescence-based counterscreen assay for S1P4 agonists: Cell-based dose response high throughput screening assay to identify agonists of the Sphingosine 1-Phosphate Receptor 1 (S1P1). [Related pubchem assays (depositor defined):AID1509, AID1523, AID1801, AID463107, AID463118, AID463119, AID463122, AID463123, AID463129, AID463225, AID504400, AID504460]; type: functional
Sequence of Sphingosine 1-phosphate receptor 1 (P21453 whole entry): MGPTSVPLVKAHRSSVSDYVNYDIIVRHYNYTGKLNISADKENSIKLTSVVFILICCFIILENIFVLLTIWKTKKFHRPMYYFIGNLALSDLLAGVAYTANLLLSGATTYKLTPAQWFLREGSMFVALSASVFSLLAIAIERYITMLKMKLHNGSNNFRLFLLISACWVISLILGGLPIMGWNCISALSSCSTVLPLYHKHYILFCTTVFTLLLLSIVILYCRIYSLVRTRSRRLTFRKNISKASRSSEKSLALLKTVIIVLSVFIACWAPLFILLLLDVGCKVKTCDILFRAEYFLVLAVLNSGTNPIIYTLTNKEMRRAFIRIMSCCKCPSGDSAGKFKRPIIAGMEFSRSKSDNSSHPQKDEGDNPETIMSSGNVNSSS

[37] = biological target: T7, Sphingosine 1-phosphate receptor 4 (Homo sapiens, UniProt O95977); experiment: Fluorescence dose response cell-based high throughput screening assay for agonists of the Sphingosine 1-Phosphate Receptor 4 (S1P4). [Related pubchem assays: 1509 (Primary screen.), 1523 (Confirmation screen in triplicates.)]; type: functional
T7 sequence (O95977 whole entry): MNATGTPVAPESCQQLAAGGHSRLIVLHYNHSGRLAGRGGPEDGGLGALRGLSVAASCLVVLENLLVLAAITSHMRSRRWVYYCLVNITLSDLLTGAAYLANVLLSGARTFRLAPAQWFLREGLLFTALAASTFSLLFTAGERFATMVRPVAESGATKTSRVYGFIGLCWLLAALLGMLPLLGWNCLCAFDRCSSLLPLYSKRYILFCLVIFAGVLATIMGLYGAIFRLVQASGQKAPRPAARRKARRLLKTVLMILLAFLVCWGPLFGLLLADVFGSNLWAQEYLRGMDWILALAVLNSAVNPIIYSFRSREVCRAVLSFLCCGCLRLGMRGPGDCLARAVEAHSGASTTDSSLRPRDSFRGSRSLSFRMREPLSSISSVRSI

Compound: O=[N+]([O-])c1ccc(O)c(/C=N/Nc2ccc(Cl)nn2)c1
- EC50 [1]: 14.6 µM (inconclusive)
- EC50 [2]: 0.925 µM (active)
- EC50 [3]: 1.05 µM (inconclusive)
- EC50 [4]: 9.52 µM (active)
- EC50 [5]: 0.717 µM (active)
- EC50 [6]: 0.673 µM (inconclusive)
- EC50 [7]: 0.375 µM (inconclusive)
- EC50 [8]: 0.305 µM (active)
- EC50 [9]: 0.904 µM (active)
- EC50 [10]: 0.779 µM (active)
- EC50 [11]: > 120 µM (not active)
- EC50 [12]: > 40 µM (inactive)
- EC50 [13]: < 0.1 µM (active)
- EC50 [14]: 0.179 µM (active)
- EC50 [15]: 0.825 µM (active)
- EC50 [16]: 0.633 µM (active)
- IC50 [17]: 3.63 µM (active)
- EC50 [18]: > 180 µM (inactive)
- EC50 [19]: < 6 µM (inconclusive)
- IC50 [20]: 14.1 µM (active)
- EC50 [21]: 0.944 µM (active)
- EC50 [22]: 0.65 µM (active)
- IC50 [23]: > 80 µM (inactive)
- IC50 [24]: 1.32 µM (active)
- EC50 [25]: > 150 µM (inactive)

Compound: CN[C@@H](C)C(=O)N[C@H](C(=O)N[C@H](C(=O)Nc1cccc2ccccc12)C(C)C)C(C)C
- IC50 [26]: > 100 µM (inactive)
- IC50 [27]: 3.9 µM (active)

Compound: COCCCNC(=O)c1cc2c(=O)n3ccccc3nc2n(C2CCCC2)c1=N
- EC50 [28]: > 32 µM (inactive)
- EC50 [29]: > 32 µM (inactive)
- IC50 [30]: > 32 µM (inactive)
- IC50 [31]: > 32 µM (inactive)
- IC50 [32]: > 32 µM (inactive)
- IC50 [33]: > 32 µM (inactive)
- EC50 [34]: 2.33 µM (active)

Compound: Cc1ccc2[nH]c(=O)c(CN(CCC(C)C)C(=O)c3ccccn3)cc2c1
- EC50 [35]: 13.1 µM (inactive)

Compound: Cc1cc(C)nc(N/N=C/c2ccc(N3CCOCC3)cc2)n1
- EC50 [36]: > 49.8 µM (inactive)
- EC50 [37]: > 49.8 µM (not active)
